Test results: patent US8580763B2, “2, 6-dinitrogen-containing substituted purine derivatives, the preparation and uses thereof” (Zhanggui Wu, priority 2007, dated 2013)
Blank lines part the entries; values can stand above or below the molecule they belong to.

Columns and labels:
[1] = test system: non-small cell lung cancer; test: anticancer activity in vitro (SRB, MTT), non-small cell lung cancer; type: cell-based; conditions: action time about 72 h
Method: (§1) Antitumor activity tests in vitro and in vivo are carried out to the parital compounds prepared from the above examples. Wherein the method of SRB, MTT is used in vitro, and the action time is about 72 h. Inhibitory effects of the compounds on the growth of mouse Conlon26 cancer are shown in Table 2, inhibitory effects of the compounds on the growth of mouse S180 sarcoma are shown in Table 3.

colon cancer HT-29 = test: anticancer activity in vitro (SRB, MTT), colon cancer HT-29; type: cell-based; conditions: Homo sapiens, action time about 72 h
Method: as §1

[2] = test system: human liver cancer Bel-7402; test: anticancer activity in vitro (SRB, MTT), human liver cancer Bel-7402; type: cell-based; conditions: action time about 72 h
Method: as §1

lymph cancer Ramos = test: anticancer activity in vitro (SRB, MTT), lymph cancer Ramos; type: cell-based; conditions: Homo sapiens, action time about 72 h
Method: as §1

[3] = test system: four different cancer cells; test: antitumor activity in vitro, summary over the four cancer cells of Table 1; type: cell-based; conditions: summary of Table 1
Method: as §1
Compared with compound I, compound XX has better antitumor effects.

mouse Colon26 cancer = test: inhibitory effects on the growth of mouse Colon26 cancer in vivo; conditions: for End body weight / Inhibition rate / Tumor removed body weight / Tumor weight / Initial body weight: Colon26 mice; for Initial body weight: baseline
Method: as §1

mouse S180 sarcoma = test: inhibitory effects on the growth of mouse S180 sarcoma in vivo; conditions: for End body weight / Inhibition rate / Tumor removed body weight / Tumor weight / Initial body weight: S180 mice; for Initial body weight: baseline
Method: as §1

Structure (SMILES): O=[N+]([O-])c1ccc(Nc2nc(NC3CC3)c3nc[nH]c3n2)cc1 [Compound XXX]
IC50 [1]: 11.1 µM
IC50 (colon cancer HT-29): > 100 µM
IC50 [2]: > 100 µM
IC50 (lymph cancer Ramos): > 100 µM

Structure (SMILES): c1cnc2ccc(Nc3nc(N4CCNCC4)c4nc[nH]c4n3)cc2c1 [Compound XXI]
IC50 [1]: 6.27 µM
IC50 (colon cancer HT-29): 2.74 µM
IC50 [2]: 2.33 µM
IC50 (lymph cancer Ramos): 2.33 µM
antitumor activity to four different cancer cells (in words) [3]: higher antitumor activity

Structure (SMILES): CNc1nc(Nc2ccc3ncccc3c2)nc2[nH]cnc12 [Compound VII]
IC50 [1]: 6.65 µM
IC50 (colon cancer HT-29): 4.01 µM
IC50 [2]: 0.23 µM
IC50 (lymph cancer Ramos): 1.27 µM
antitumor activity to four different cancer cells (in words) [3]: higher antitumor activity

Structure (SMILES): CN(C)c1nc(Nc2ccc3ncccc3c2)nc2[nH]cnc12 [Compound XX]
End body weight (mouse Colon26 cancer; 100 mg/kg p.o.): 18.74 g
Inhibition rate (mouse Colon26 cancer; 100 mg/kg p.o.): 72.31%
Tumor removed body weight (mouse Colon26 cancer; 100 mg/kg p.o.): 18.23 g
Tumor weight (mouse Colon26 cancer; 100 mg/kg p.o.): 0.51 g
Initial body weight (mouse Colon26 cancer; 100 mg/kg p.o.): 19.64 g
End body weight (mouse Colon26 cancer; 150 mg/kg p.o.): 18.68 g
Inhibition rate (mouse Colon26 cancer; 150 mg/kg p.o.): 79.47%
Tumor removed body weight (mouse Colon26 cancer; 150 mg/kg p.o.): 18.31 g
Tumor weight (mouse Colon26 cancer; 150 mg/kg p.o.): 0.38 g
Initial body weight (mouse Colon26 cancer; 150 mg/kg p.o.): 19.90 g
End body weight (mouse S180 sarcoma; 100 mg/kg p.o.): 16.53 g
Inhibition rate (mouse S180 sarcoma; 100 mg/kg p.o.): 72.19%
Tumor removed body weight (mouse S180 sarcoma; 100 mg/kg p.o.): 15.90 g
Tumor weight (mouse S180 sarcoma; 100 mg/kg p.o.): 0.63 g
Initial body weight (mouse S180 sarcoma; 100 mg/kg p.o.): 19.96 g
End body weight (mouse S180 sarcoma; 200 mg/kg p.o.): 16.80 g
Inhibition rate (mouse S180 sarcoma; 200 mg/kg p.o.): 73.38%
Tumor removed body weight (mouse S180 sarcoma; 200 mg/kg p.o.): 16.20 g
Tumor weight (mouse S180 sarcoma; 200 mg/kg p.o.): 0.61 g
Initial body weight (mouse S180 sarcoma; 200 mg/kg p.o.): 19.58 g

Structure (SMILES): Cc1cc(Nc2nc(NC3CC3)c3nc[nH]c3n2)c2ccccc2n1 [Compound XXV]
IC50 [1]: 13.8 µM
IC50 (colon cancer HT-29): 2.25 µM
IC50 [2]: 5.28 µM
IC50 (lymph cancer Ramos): 5.28 µM

Structure (SMILES): CC(CO)Nc1nc(Nc2ccc3ncccc3c2)nc2[nH]cnc12 (stereo not shown) [Compound X]
IC50 [1]: 12.5 µM
IC50 (colon cancer HT-29): 24.2 µM
IC50 [2]: 1.78 µM
IC50 (lymph cancer Ramos): 4.96 µM

More lines, main results first:

IC50 [1]: 1.71 µM
IC50 (colon cancer HT-29): 1.94 µM
IC50 [2]: 3.46 µM
IC50 (lymph cancer Ramos): 3.01 µM
Structure (SMILES): C=CCN(CC=C)c1nc(Nc2ccc3ncccc3c2)nc2[nH]cnc12 [Compound XIII]
antitumor activity to four different cancer cells (in words) [3]: higher antitumor activity

IC50 [1]: 1.33 µM
IC50 (colon cancer HT-29): 2.22 µM
IC50 [2]: 4.62 µM
IC50 (lymph cancer Ramos): 2.93 µM
Structure (SMILES): c1cnc2ccc(Nc3nc(N4CCCCC4)c4nc[nH]c4n3)cc2c1 [Compound XIV]
antitumor activity to four different cancer cells (in words) [3]: higher antitumor activity

IC50 [1]: 3.61 µM
IC50 (colon cancer HT-29): 8.61 µM
IC50 [2]: 1.58 µM
IC50 (lymph cancer Ramos): 5.78 µM
Structure (SMILES): C=CCNc1nc(Nc2ccc3ncccc3c2)nc2[nH]cnc12 [Compound I]
inhibitory effects on mouse Colon26 cancer (in words) (mouse Colon26 cancer; 100 mg/kg dosage): better inhibitory effects
End body weight (mouse Colon26 cancer; 100 mg/kg p.o.): 18.15 g
Inhibition rate (mouse Colon26 cancer; 100 mg/kg p.o.): 62.25%
Tumor removed body weight (mouse Colon26 cancer; 100 mg/kg p.o.): 17.46 g
Tumor weight (mouse Colon26 cancer; 100 mg/kg p.o.): 0.69 g
Initial body weight (mouse Colon26 cancer; 100 mg/kg p.o.): 19.47 g
End body weight (mouse Colon26 cancer; 150 mg/kg p.o.): 17.96 g
Inhibition rate (mouse Colon26 cancer; 150 mg/kg p.o.): 76.52%
Tumor removed body weight (mouse Colon26 cancer; 150 mg/kg p.o.): 17.26 g
Tumor weight (mouse Colon26 cancer; 150 mg/kg p.o.): 0.43 g
Initial body weight (mouse Colon26 cancer; 150 mg/kg p.o.): 21.10 g
inhibitory effects on mouse S180 sarcoma (in words) (mouse S180 sarcoma; 100 mg/kg dosage): better inhibitory effects
End body weight (mouse S180 sarcoma; 100 mg/kg p.o.): 18.32 g
Inhibition rate (mouse S180 sarcoma; 100 mg/kg p.o.): 68.93%
Tumor removed body weight (mouse S180 sarcoma; 100 mg/kg p.o.): 17.61 g
Tumor weight (mouse S180 sarcoma; 100 mg/kg p.o.): 0.71 g
Initial body weight (mouse S180 sarcoma; 100 mg/kg p.o.): 19.74 g
End body weight (mouse S180 sarcoma; 200 mg/kg p.o.): 16.04 g
Inhibition rate (mouse S180 sarcoma; 200 mg/kg p.o.): 70.21%
Tumor removed body weight (mouse S180 sarcoma; 200 mg/kg p.o.): 15.36 g
Tumor weight (mouse S180 sarcoma; 200 mg/kg p.o.): 0.68 g
Initial body weight (mouse S180 sarcoma; 200 mg/kg p.o.): 18.97 g
antitumor activity to four different cancer cells (in words) [3]: higher antitumor activity
